Experimental data from article PMC8329121 (Journal of Neuroimmune Pharmacology, 2021).
Where “and” joins values, the source holds several entries; their conditions need not be identical. Identical values can stand only once. Like-named read-outs stand apart in the source and are kept apart here.

Key:
WT hDAT [1] = biological target: T1, WT hDAT (Homo sapiens, UniProt Q01959); details: for Vmax of [3H]DA uptake: PC12 cells
hDAT D381L [2] = biological target: T2, hDAT D381L (Homo sapiens, UniProt Q01959, D381L); assay: [3H]DA uptake kinetics and inhibition in intact PC12 cells; type: cell-based
T2 construct: expressed in transfected cells; host or cells: PC12 cells, transient, pcDNA3.1+
T2 sequence (Q01959 whole entry D381L): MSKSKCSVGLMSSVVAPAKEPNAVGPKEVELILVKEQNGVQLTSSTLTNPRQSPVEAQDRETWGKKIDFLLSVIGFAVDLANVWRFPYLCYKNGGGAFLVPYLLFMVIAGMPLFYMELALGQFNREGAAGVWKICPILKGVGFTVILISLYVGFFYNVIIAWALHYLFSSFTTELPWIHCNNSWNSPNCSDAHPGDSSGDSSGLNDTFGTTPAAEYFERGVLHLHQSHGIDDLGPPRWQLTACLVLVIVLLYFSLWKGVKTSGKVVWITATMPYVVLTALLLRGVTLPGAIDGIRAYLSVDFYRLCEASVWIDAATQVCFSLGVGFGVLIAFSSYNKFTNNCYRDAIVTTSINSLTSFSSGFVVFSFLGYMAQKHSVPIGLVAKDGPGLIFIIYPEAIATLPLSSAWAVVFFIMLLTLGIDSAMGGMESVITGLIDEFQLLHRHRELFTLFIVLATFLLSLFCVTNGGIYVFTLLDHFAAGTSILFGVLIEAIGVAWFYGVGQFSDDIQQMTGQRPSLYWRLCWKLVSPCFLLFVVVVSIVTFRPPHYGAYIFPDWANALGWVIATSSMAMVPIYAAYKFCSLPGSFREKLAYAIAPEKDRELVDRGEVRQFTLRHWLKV

hDAT D206L [3] = biological target: T3, hDAT D206L (Homo sapiens, UniProt Q01959, D206L); assay: as above; type: cell-based
T3 construct: expressed in transfected cells; host or cells: PC12 cells, transient, pcDNA3.1+
T3 sequence (Q01959 whole entry D206L): as the sequence (Q01959 whole entry D381L) above, with D206L, L381D counted along it

hDAT D206L/H547A [4] = biological target: T4, hDAT D206L/H547A (Homo sapiens, UniProt Q01959, D206L/H547A); assay: as above; type: cell-based
T4 construct: expressed in transfected cells; host or cells: PC12 cells, transient, pcDNA3.1+
T4 sequence (Q01959 whole entry D206L/H547A): as the sequence (Q01959 whole entry D381L) above, with D206L, L381D, H547A counted along it

hDAT Y88F/D206L/H547A [5] = biological target: T5, hDAT Y88F/D206L/H547A (Homo sapiens, UniProt Q01959, D206L/H547A/Y88F); assay: as above; type: cell-based
T5 construct: expressed in transfected cells; host or cells: PC12 cells, transient, pcDNA3.1+
T5 sequence (Q01959 1-620 Y88F/D206L/H547A): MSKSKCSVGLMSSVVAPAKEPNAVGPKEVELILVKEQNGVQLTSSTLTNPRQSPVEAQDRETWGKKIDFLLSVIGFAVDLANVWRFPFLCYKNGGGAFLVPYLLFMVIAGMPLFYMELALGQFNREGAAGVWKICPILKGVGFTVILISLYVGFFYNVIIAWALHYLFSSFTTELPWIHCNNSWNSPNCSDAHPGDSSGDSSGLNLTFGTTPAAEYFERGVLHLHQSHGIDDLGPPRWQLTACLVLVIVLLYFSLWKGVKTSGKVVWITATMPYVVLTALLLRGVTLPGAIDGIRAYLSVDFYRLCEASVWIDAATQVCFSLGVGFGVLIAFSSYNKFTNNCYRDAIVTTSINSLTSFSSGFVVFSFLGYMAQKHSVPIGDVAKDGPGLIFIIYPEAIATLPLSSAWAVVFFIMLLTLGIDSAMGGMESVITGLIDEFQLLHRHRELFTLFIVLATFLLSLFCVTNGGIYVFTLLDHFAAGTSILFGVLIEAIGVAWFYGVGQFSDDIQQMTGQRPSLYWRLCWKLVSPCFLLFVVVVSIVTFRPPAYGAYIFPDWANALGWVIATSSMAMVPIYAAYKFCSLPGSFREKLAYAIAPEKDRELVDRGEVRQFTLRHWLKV

WT hDAT [6] = biological target: T1, WT hDAT; type: binding; set-up: expressed in transfected cells; host or cells: PC12 cells, transient, pcDNA3.1+; details: for increase in specific [3H]WIN35,428 binding: Fig. 6d; for Bmax of [3H]WIN35,428 binding: PC12 cells
Procedure: (§1) For the competitive inhibition experiment, assays were performed in duplicate in a final volume of 500 µl. […] Assays were terminated by removal of reaction reagents in well and then washed three times with ice-cold assay buffer. Cells were lysed with 1 % SDS for an hour. Radioactivity was determined as described above.

hDAT D206L/H547A [7] = biological target: T4, hDAT D206L/H547A; assay: [3H]WIN35,428 binding in intact PC12 cells
Procedure: as §1

hDAT D206L [8] = biological target: T3, hDAT D206L; assay: [3H]WIN35,428 binding in intact PC12 cells
Procedure: as §1

hDAT D381L [9] = biological target: T2, hDAT D381L; assay: [3H]WIN35,428 binding in intact PC12 cells
Procedure: as §1

hDAT Y88F/D206L/H547A [10] = biological target: T5, hDAT Y88F/D206L/H547A; assay: [3H]WIN35,428 binding in intact PC12 cells
Procedure: as §1

hDAT H547A = biological target: T6, hDAT H547A (Homo sapiens, UniProt Q01959, H547A); assay: Kinetic analysis of [3H]DA uptake with or without 2-BP in PC12 cells; type: cell-based; details: 15 µM 2-BP
T6 construct: expressed in transfected cells; host or cells: PC12 cells, transient, pcDNA3.1+
T6 sequence (Q01959 whole entry H547A): as the sequence (Q01959 whole entry D381L) above, with L381D, H547A counted along it
Procedure: (§2) This concentration was chosen based on previous studies as well as pilot experiments conducted to determine the optimal concentration (data not shown). […] Intact PC12 cells in 24-well plates transiently expressing WT hDAT or H547A were washed twice with 1× KRH buffer. […] Nonspecific uptake was determined in the presence of 10 µM nomifensine and desipramine. […] specific uptake, nonspecific uptake was subtracted from total uptake. To determine the effects of 2-BP exposure at the 2 h time point, the cells were incubated similarly as above, but allowed to incubate at room temperature for 2 h. After each incubation, cells were washed twice with ice-cold 1× KRH buffer to terminate the […], lysed with 500 µl 1 % SDS, and allowed to shake at room temperature for an hour. Lysates were collected into scintillation vials and radioactivity was measured via liquid scintillation as above. Radioactivity was measured the next day using a liquid scintillation counter (model Tri-Carb 2900TR; PerkinElmer Life and Analytical Sciences, Waltham, MA).

WT hDAT [11] = biological target: T1, WT hDAT; assay: as above; type: cell-based; set-up: expressed in transfected cells; host or cells: PC12 cells, transient, pcDNA3.1+; details: 15 µM 2-BP
Procedure: as §2

[12] = ZnCl2 1, 10, 100 µM, concentration-dependent

T1 sequence (Q01959 whole entry): as the sequence (Q01959 whole entry D381L) above, with L381D counted along it

Structure (SMILES): NCCc1ccc(O)c(O)c1 [[^3H]DA, 3,4-ethyl-2[N-^3H]dihydroxyphenylethylamine]
- Km (WT hDAT [1]; read-out: Km of [3H]DA uptake, PC12 cells, Table 2 series): 0.45 ± 0.21 µM
- Km (hDAT D381L [2]; PC12 cells): 1.04 ± 0.34 µM
- Km (hDAT D206L [3]; PC12 cells): 1.66 ± 0.78 µM

Structure (SMILES): [3H]C(CN)c1ccc(O)c(O)c1 (stereo not drawn) [[^3H]DA, 3,4-ethyl-2[N-^3H]dihydroxyphenylethylamine]
- Vmax of [3H]DA uptake (WT hDAT [1]; Table 1 series (single mutants)): 12.43 ± 2.50 pmol/min/10^5 cells
- Vmax of [3H]DA uptake (WT hDAT [1]; Table 2 series (double and triple mutants)): 26.62 ± 3.87 pmol/min/10^5 cells
- Vmax of [3H]DA uptake (hDAT D206L/H547A [4]; PC12 cells): 40.82 ± 3.60 pmol/min/10^5 cells
- Vmax of [3H]DA uptake (hDAT D381L [2]; PC12 cells): 4.54 ± 0.95 pmol/min/10^5 cells
- Vmax of [3H]DA uptake (hDAT Y88F/D206L/H547A [5]; PC12 cells): 10.78 ± 0.98 pmol/min/10^5 cells
- Vmax of [3H]DA uptake (hDAT D206L [3]; PC12 cells): 13.09 ± 3.55 pmol/min/10^5 cells

Structure (SMILES): [Cl-].[Cl-].[Zn+2] [Zn^2+, ZnCl2]
- increase in specific [3H]WIN35,428 binding (WT hDAT [6]; 10 µM Zn2+): 39%
- increase in specific [3H]WIN35,428 binding (WT hDAT [6]; 100 µM Zn2+): 52%
- zinc effect on specific [3H]WIN35,428 binding (WT hDAT [6]; [12]): increase
- zinc effect on [3H]DA uptake (hDAT D206L/H547A [4]; [12]): decrease
- zinc effect on [3H]DA uptake (hDAT D381L [2]; [12]): decrease
- zinc effect on [3H]DA uptake (hDAT Y88F/D206L/H547A [5]; [12]): decrease
- zinc-induced increase in [3H]WIN35,428 binding versus WT hDAT (hDAT D206L/H547A [7]; 10 and 100 µM Zn2+, Fig. 6d): attenuated
- zinc effect on specific [3H]WIN35,428 binding (hDAT D206L [8]; [12]): increase
- zinc effect on specific [3H]WIN35,428 binding (hDAT D381L [9]; [12]): increase
- zinc-induced increase in [3H]WIN35,428 binding versus WT hDAT (hDAT Y88F/D206L/H547A [10]; 10 and 100 µM Zn2+, Fig. 6d): attenuated
- zinc effect on [3H]DA uptake (hDAT D206L [3]; [12]): decrease

Structure (SMILES): CCCCCCCCCCCCCCC(Br)C(=O)O (stereo not drawn) [2-BP, 2-bromopalmitate]
- Vmax of [3H]DA uptake in the presence of 2-BP (hDAT H547A; 0 h): 6.41 ± 1.45 pmol/min/10^5 cells
- Vmax of [3H]DA uptake in the presence of 2-BP (hDAT H547A; 2 h): 5.56 ± 1.93 pmol/min/10^5 cells and 5.66 ± 1.93 pmol/min/10^5 cells
- Vmax of [3H]DA uptake in the presence of 2-BP (WT hDAT [11]; 0 h): 5.36 ± 0.74 pmol/min/10^5 cells
- Vmax of [3H]DA uptake in the presence of 2-BP (WT hDAT [11]; 2 h): 5.55 ± 0.92 pmol/min/10^5 cells

Structure (SMILES): COC(=O)[C@H]1[C@@H](c2ccc(F)cc2)C[C@@H]2CC[C@H]1N2C [[^3H]WIN35,428]
- Bmax of [3H]WIN35,428 binding (WT hDAT [6]; Table 3 series): 3.32 ± 0.58 pmol/10^5 cells
- Bmax of [3H]WIN35,428 binding (WT hDAT [6]; Table 4 series): 2.44 ± 0.40 poml/10^5 cells
- Bmax of [3H]WIN35,428 binding (hDAT D206L/H547A [7]; PC12 cells): 4.95 ± 1.28 poml/10^5 cells
- Bmax of [3H]WIN35,428 binding (hDAT D206L [8]; PC12 cells): 2.87 ± 0.96 pmol/10^5 cells
- Bmax of [3H]WIN35,428 binding (hDAT D381L [9]; PC12 cells): 2.00 ± 0.63 pmol/10^5 cells
- Bmax of [3H]WIN35,428 binding (hDAT Y88F/D206L/H547A [10]; PC12 cells): 3.50 ± 0.47 poml/10^5 cells
